Laboratory results taken from patent US5607967A, “Treatment of alzheimer's disease with 5-(tetradecyloxy)-2-furan carboxylic acid” (Merck & Co., Inc., priority 1994, dated 1997).

How the values were obtained:
GR/NER chimeric receptor [1] = experiment: Activation of GR/NER in COS-7 cells (luciferase); settings: for Fold of stimulation GR/NER: no TOFA
Description: The ligand dependent transcription assays were performed as described in Example 4. The transfected COS cells were treated with dopamine, TOFA, or with the combination of TOFA and dopamine at the indicated concentrations and tested for luciferase activity.

GR/NER chimeric receptor [2] = experiment: Activation of GR/NER in CV1 cells (luciferase); settings: for Fold of stimulation GR/NER: no TOFA
Description: The ligand dependent transcription assays were performed as described in Example 4, using CV1 cells in place of COS cells. The transfected CV1 cells were treated with dopamine, TOFA, or with a combination of TOFA and dopamine at the indicated concentrations and tested for luciferase activity.
CV1 cells were co-transfected with the MMTV-Luciferase reporter gene (pJA358) and the GR/NER chimeric receptor as described in Example 4. The cells were treated with increasing amount of the dopamine D1 receptor antagonist SCH 23390 with or without 50 μM […] dopamine.

[3] = system: Dopamine D2 receptor antagonist (Haloperidol) induced catalepsy; experiment: Haloperidol induced catalepsy (Bar method); format: in vivo, rat; settings: carrier pretreatment, 24 h later 0.1 mg/kg Haloperidol
GR/NUC chimeric receptor = target: T1, GR/NUC chimeric receptor (Homo sapiens, UniProt Q03181); experiment: Ligand dependent transcription assay, GR/NUC chimeric receptor with MMTV-luciferase reporter; format: cell-based
T1 construct: transfected cells, MMTV-luciferase
T1 sequence (Q03181 1-441): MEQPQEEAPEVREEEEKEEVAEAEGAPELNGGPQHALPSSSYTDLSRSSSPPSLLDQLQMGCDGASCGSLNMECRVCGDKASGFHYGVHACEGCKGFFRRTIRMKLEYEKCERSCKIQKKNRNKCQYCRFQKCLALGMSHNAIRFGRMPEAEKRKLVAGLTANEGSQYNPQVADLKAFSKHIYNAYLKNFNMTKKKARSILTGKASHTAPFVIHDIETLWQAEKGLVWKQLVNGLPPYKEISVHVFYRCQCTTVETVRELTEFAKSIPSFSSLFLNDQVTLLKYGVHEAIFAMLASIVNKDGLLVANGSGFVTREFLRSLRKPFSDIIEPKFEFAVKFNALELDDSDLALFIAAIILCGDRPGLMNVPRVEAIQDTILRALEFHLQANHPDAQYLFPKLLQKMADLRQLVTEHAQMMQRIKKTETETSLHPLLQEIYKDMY
T1 sequence (P06537 1-792 partner): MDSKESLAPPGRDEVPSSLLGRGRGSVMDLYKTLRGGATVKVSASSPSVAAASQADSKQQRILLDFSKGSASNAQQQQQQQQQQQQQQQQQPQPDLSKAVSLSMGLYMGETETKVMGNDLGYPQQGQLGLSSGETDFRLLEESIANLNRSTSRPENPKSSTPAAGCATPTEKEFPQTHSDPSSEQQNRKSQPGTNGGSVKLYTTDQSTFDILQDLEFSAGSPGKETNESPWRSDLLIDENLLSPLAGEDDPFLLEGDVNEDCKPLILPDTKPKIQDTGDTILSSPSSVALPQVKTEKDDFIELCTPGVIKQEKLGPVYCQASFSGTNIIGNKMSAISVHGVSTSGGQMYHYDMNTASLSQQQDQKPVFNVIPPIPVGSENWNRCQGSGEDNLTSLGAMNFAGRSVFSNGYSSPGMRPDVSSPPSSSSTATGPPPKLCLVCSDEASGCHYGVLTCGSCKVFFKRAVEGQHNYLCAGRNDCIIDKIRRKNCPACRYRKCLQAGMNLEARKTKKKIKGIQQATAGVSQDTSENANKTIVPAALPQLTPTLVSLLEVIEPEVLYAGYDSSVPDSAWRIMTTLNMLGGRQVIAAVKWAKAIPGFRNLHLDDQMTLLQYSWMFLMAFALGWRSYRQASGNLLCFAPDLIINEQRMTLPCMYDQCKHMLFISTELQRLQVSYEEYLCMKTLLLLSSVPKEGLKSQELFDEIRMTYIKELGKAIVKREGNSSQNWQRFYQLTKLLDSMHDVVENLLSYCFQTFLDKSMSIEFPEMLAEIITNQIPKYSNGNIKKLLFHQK
Description: (§1) Similar hybrid receptors GR/NER, GR/NUC and GR/PPAR, in identical expression plasmid backgrounds were prepared essentially as described for the construction of the GR/mPPAR and GR/NUC chimeric receptors in Schmidt et al., "Identification of a new member of the steroid hormone receptor superfamily that is activated by a peroxisome proliferator and fatty acids," Mol. Endocrinol., 6(10):1634-41, 1992, and in Boie et al., "Enantioselective activation of the peroxisome proliferator-activated receptor", J. Biol. Chem. 268(8):5530-4, 1993.
(§2) Briefly, the amino terminal portion of the mouse glucocorticoid receptor (mGR), that includes the DNA binding domain was fused to the putative ligand binding domains of the nuclear receptor NER, hNUC-I (Schmidt et al., 1992), mPPAR (Issenmann and Green, 1990) to form the respective chimeric receptors GR/NER, GR/NUC and GR/PPAR. The GR/NER chimeric receptor was constructed as described for the GR/NUC and GR/PPAR hybrid receptors (Schmidt et al., 1992; Boie et al). The cDNA sequences coding for amino acids Arg^155 and Glu^156 of the NER receptor were converted to the Xho I restriction site, that was later used for the ligation to the GR cDNA sequences that coded for the DNA binding domain. Thus, converting amino acid residues Arg^155 and Glu^156 of NER receptor to amino acid residues Ser^155 and His^156.

GR/NER chimeric receptor [4] = experiment: Ligand dependent transcription assay, GR/NER chimeric receptor with MMTV-luciferase reporter; format: cell-based, human
Description: To search for putative ligands for the NER receptor, the chimeric receptor GR/NER was prepared. […] Chimeric receptors were prepared in which the amino terminal portion of the mouse glucocorticoid receptor (mGR) that includes the DNA binding domain was fused to the putative ligand binding domains of the nuclear receptor NER to form the respective chimeric receptor GR/NER. The cDNA sequences coding for amino acid residues Arg^155 and Glu^156 of the hNER receptor (Shinar et al., NER, a new member of a gene family encoding the steroid hormone nuclear receptor; GENE (in press) were convened to the Xho I restriction site, which site was later used for the ligation to the GR cDNA sequences that coded for the DNA binding domain. Thus, the amino acid residues Arg^155 and Glu^156 of the NER receptor were convened to amino acid residues Ser^155 and His^156.
The chimera was employed in ligand dependent transactivation assays with the reporter gene MMTV-luciferase, in which the luciferase cDNA is transcribed under the control of the MMTV promoter.
as §1, §2

human NUCI receptor = target: T2, human NUCI receptor (Homo sapiens, UniProt Q03181); experiment: Transcription assay, native NUC-I receptor co-transfected with MMTV-luciferase reporter; settings: read-out: Fold of stimulation NUC-I
T2 sequence (Q03181 1-441): T1 sequence (Q03181 1-441)
Description: (§3) The reporter gene was the plasmid pJA358 in which the expression of firefly luciferase is regulated by two tandem repeats of the glucocorticoid hormone response element (GRE) linked to the MMTV promoter (Boie et al., 1993).
(§4) Transient transfection of COS and CV1 cells was performed as described (Schmidt 1992). Cells were plated (1.5×10^5 in 1 mL) into 12 well dishes in phenol red-free medium supplemented with activated charcoal treated fetal calf serum. The next day 0.12 mL of DNA 10 μg/ml (5 μg receptor DNA and 5 μg reporter plasmid), as a calcium phosphate precipitate, was added to the cells. Ligands were added to the cells 30 minutes after transfection. The next day (18 hours), the cells were washed and fresh ligands added. Twenty-four hours later, cell extracts were prepared and assayed for luciferase enzyme activity using the luciferase assay system (Promega Madison, Wis.). Each transfection was performed in triplicate and the luciferase activity of each sample measured in duplicate using the AutoClinilumat (Berthold Nashua, N.H.).
(§5) The transfected cells were treated with TOFA at 2 μM, 10 μM, 20 μM, and 50 μM and oleic acid at 50 μM, and 300 μM.

[5] = target: T3, GR/PPAR chimeric receptor (Mus musculus, UniProt P23204); experiment: Ligand dependent transcription assay, GR/PPAR chimeric receptor with MMTV-luciferase reporter; format: cell-based; settings: read-out: Fold of stimulation GR/PPAR
T3 construct: COS cells, MMTV-luciferase
T3 sequence (P23204 1-468): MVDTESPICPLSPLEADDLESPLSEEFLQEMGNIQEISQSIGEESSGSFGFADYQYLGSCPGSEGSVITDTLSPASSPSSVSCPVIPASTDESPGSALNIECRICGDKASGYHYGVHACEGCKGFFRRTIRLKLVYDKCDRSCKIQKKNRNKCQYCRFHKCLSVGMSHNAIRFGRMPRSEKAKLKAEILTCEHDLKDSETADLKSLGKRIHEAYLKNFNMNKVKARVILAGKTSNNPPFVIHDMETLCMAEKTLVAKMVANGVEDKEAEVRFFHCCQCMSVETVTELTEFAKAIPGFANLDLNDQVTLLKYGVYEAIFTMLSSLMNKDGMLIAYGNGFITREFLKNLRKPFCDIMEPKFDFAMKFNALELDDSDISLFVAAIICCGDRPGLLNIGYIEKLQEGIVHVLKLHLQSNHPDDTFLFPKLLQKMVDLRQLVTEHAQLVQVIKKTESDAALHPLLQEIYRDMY
T3 sequence (P06537 1-792 partner): T1 sequence (P06537 1-792 partner)

[6] = target: T4, native mouse glucocorticoid receptor (Mus musculus, UniProt P06537); experiment: Transcription assay, native glucocorticoid receptor co-transfected with MMTV-luciferase reporter; settings: read-out: Fold of stimulation GR
T4 sequence (P06537 1-792): T1 sequence (P06537 1-792 partner)
Description: as §3, §4, §5

[7] = target: T3, GR/PPAR chimeric receptor; experiment: Ligand dependent transcription assay, GR/PPAR chimeric receptor with MMTV-luciferase reporter; format: cell-based
Description: as §1, §2
The ligand transcription assay mediated by GR/PPAR in COS cells was performed as described in Example 4. The cells were treated with TOFA and Cerulenin at 0.1, 1, 10 and 100 μM.

## NCCc1ccc(O)c(O)c1 [Dopamine, dopamine]
GR/NER chimeric receptor [1]; dopamine 0.1 μM, 1440 min
  Fold of stimulation GR/NER: 1.10 ± 0.07 fold
GR/NER chimeric receptor [1]; dopamine 1.0 μM
  Fold of stimulation GR/NER: 0.87 ± 0.06 fold
GR/NER chimeric receptor [1]; dopamine 10 μM, 1440 min
  Fold of stimulation GR/NER: 0.84 ± 0.08 fold
GR/NER chimeric receptor [1]; dopamine 100 μM, 1440 min
  Fold of stimulation GR/NER: 0.87 ± 0.11 fold
GR/NER chimeric receptor [1]; no significant dopamine D1 receptor expression
  Suppression of GR/NER mediated transcription in COS-7 cells: suppression was not seen
GR/NER chimeric receptor [2]
  Effect on transcription mediated by GR/NER in CV1 cells: suppressed the transcription
GR/NER chimeric receptor [2]; dopamine 0.1 μM
  Fold of stimulation GR/NER: 1.28 ± 0.05 fold
GR/NER chimeric receptor [2]; dopamine 1.0 μM
  Fold of stimulation GR/NER: 0.88 ± 0.11 fold
GR/NER chimeric receptor [2]; dopamine 10 μM
  Fold of stimulation GR/NER: 0.55 ± 0.06 fold
GR/NER chimeric receptor [2]; dopamine 100 μM
  Fold of stimulation GR/NER: 0.44 ± 0.14 fold

## O=C(CCCN1CCC(O)(c2ccc(Cl)cc2)CC1)c1ccc(F)cc1 [Haloperidol, haloperidol, reference compound]
[3]
  Catalepsy Duration: 20.3 ± 6.7 s

## CCCCCCCC/C=C\CCCCCCCC(=O)O [Oleic Acid, oleic acid, reference compound]
GR/NUC chimeric receptor
  Expression mediated by GR/NUC: activated expression
GR/NUC chimeric receptor; read-out: Fold of stimulation GR/NUC
  fold induction at 150 µM: 3.42 ± 0.28
GR/NER chimeric receptor [4]
  Expression mediated by GR/NER: not by the GR/NER chimera
GR/NER chimeric receptor [4]; 50 μM
  Fold of stimulation GR/NER: 0.90 ± 0.13 fold
GR/NER chimeric receptor [4]; 300 μM
  Fold of stimulation GR/NER: 0.73 ± 0.21 fold
Human NUCI receptor
  fold induction at 150 µM: 0.55 ± 0.08
[5]
  fold induction at 50 µM: 2.87 ± 0.2
  fold induction at 300 µM: 14.69 ± 0.06
[6]
  fold induction at 150 µM: 0.44 ± 0.17
[7]
  Expression mediated by GR/PPAR: activated expression
